A value given as a limit tells only on which side of the number the result lay.

In experiment [1] the target is c-Src (Homo sapiens (Human), UniProt P12931). The experiment can be described thus: c-Src enzyme inhibition (FRET, Z-LYTE). The class given is biochemical. As for the experimental part: (§1) The enzyme inhibitory activities of compounds disclosed herein are determined by FRET using synthetic peptides labelled with both donor and acceptor fluorophores (Z-LYTE, Invitrogen Ltd., Paisley, UK).
Sequence of c-Src (P12931 whole entry, looked up): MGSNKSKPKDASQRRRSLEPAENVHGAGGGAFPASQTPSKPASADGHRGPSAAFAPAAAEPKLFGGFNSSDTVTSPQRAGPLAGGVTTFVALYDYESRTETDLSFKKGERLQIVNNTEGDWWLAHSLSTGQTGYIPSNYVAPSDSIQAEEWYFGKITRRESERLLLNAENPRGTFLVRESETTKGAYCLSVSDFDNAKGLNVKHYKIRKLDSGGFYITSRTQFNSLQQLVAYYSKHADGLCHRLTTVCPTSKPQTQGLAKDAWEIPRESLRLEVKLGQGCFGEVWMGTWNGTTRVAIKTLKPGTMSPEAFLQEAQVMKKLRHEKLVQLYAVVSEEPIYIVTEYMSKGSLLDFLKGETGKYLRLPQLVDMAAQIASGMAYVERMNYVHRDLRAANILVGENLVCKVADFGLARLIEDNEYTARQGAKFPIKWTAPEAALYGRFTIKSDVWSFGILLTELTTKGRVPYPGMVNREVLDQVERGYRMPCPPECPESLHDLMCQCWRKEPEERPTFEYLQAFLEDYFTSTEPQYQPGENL
(§2) The relevant enzyme (3000 ng/mL or 2000 ng/mL respectively, 2.5 μL) is incubated with the test compound (either 4 μg/mL, 0.4 μg/mL, 0.04 μg/mL, or 0.004 μg/mL, 2.5 μL each) for 2 hr at RT. The FRET peptides (8 μM, 2.5 μL), and appropriate ATP solutions (2.5 μL, 800 μM for c-Src, and 60 μM ATP for Syk) are then added to the enzymes/compound mixtures and incubated for 1 hr. Development reagent (protease, 5 μL) is added for 1 hr prior to detection in a fluorescence microplate reader (Varioskan® Flash, ThermoFisher Scientific).
(§3) In all cases, the site-specific protease cleaves non-phosphorylated peptide only and eliminates the FRET signal. Phosphorylation levels of each reaction are calculated using the ratio of coumarin emission (donor) over fluorescein emission (acceptor), for which high ratios indicate high phosphorylation and low ratios indicate low phosphorylation levels.

Experiment [2] concerns the target p38 MAPKα (Homo sapiens (Human), UniProt Q16539). The experiment can be described thus: p38 MAPKα enzyme inhibition (FRET, Z-LYTE), Method 2. Type of experiment: biochemical.
Experiment [3] has as its target GSK3α (Homo sapiens (Human), UniProt P49840). The experiment can be described thus: GSK 3α enzyme inhibition (FRET, Z-LYTE), Method 2. Type of experiment: biochemical. As for the experimental part: as §1
The inhibitory activities of compounds of the invention against the GSK 3α enzyme isoform (Invitrogen), are evaluated by determining the level of activation/phosphorylation of the target peptide. The GSK3-α protein (500 ng/mL, 2.5 μL) is mixed with the test compound (2.5 μL at either 4 μg/mL, 0.4 μg/mL, 0.04 μg/mL, or 0.004 μg/mL) for 2 hr at RT. The FRET peptide (8 μM, 2.5 μL), which is a phosphorylation target for GSK3α, and ATP (40 μM, 2.5 μL) are then added to the enzyme/compound mixture and the resulting mixture incubated for 1 hr. Development reagent (protease, 5 μL) is added for 1 hr prior to detection in a fluorescence microplate reader (Varioskan® Flash, ThermoFisher Scientific).
as §3
This method follows the same steps as Method 1 above, but utilises a shorter period of mixing of the test compound (105 minutes instead of 2 hours) with the GSK3-α protein.

In experiment [4] the test system is PBMCs. The experiment can be described thus: LPS-induced TNFα/IL-8 release in PBMC cells, assay (b). The class given is cell-based. Conditions: Homo sapiens, LPS-stimulated PBMCs, read-out: IC50 Values for Inhibition of Cytokine Release, PBMCs IL-8. The method, then: Peripheral blood mononuclear cells (PBMCs) from healthy subjects are separated from whole blood using a density gradient (Lymphoprep, Axis-Shield Healthcare). The PBMCs are seeded in 96 well plates and treated with compounds at the desired concentration for 2 hours before addition of 1 ng/mL LPS (Escherichia Coli 0111:B4 from Sigma Aldrich) for 24 hours under normal tissue culture conditions (37° C., 5% CO2). The supernatant is harvested for determination of IL-8 and TNFα concentrations by sandwich ELISA (Duo-set, R&D systems) and read on the fluorescence microplate reader (Varioskan® Flash, ThermoFisher Scientific).

The target in experiment [5] is Syk (Homo sapiens (Human), UniProt P43405). The experiment can be described thus: Syk enzyme inhibition (FRET, Z-LYTE). The class given is biochemical. As for the experimental part: as §1
as §2, with “The inhibitory activities of compounds of the invention against c-Src and Syk enzymes (Invitrogen), are evaluated in a similar fashion to that described hereinabove. The relevant” for “The relevant”
as §3

Experiment [6] relates to HT29 cells. The experiment can be described thus: IL-1β-induced IL-8 release in HT29 cells, assay (d). Conditions: Homo sapiens, HT-29, IL-1β-stimulated HT29 cells, read-out: IC50 Values for Inhibition of Cytokine Release, HT29 cells IL-8. The class given is cell-based. The method, then: HT29 cells, a human colon adenocarcinoma cell line, are plated in a 96 well plate (24 hrs) and pre-treated with compounds at the desired concentration for 2 hours before addition of 5 ng/mL of IL-1β (Abcam) for 24 hours. Supernatants are harvested for IL-8 quantification by Sandwich ELISA (Duo-set, R&D System). The IC50 is determined from the dose response curve.

Experiment [7] has as its system d-U937 cells. The experiment can be described thus: Accumulation of β catenin in d-U937 cells, assay (m). Type of experiment: cell-based, human. As for the experimental part:
U937 cells, a human monocytic cell line, are differentiated into macrophage-type cells by incubation with PMA; (100 ng/mL) for between 48 to 72 hr. The cells are then incubated with either final concentrations of test compound or vehicle for 18 hr. The induction of β-catenin by the test compounds is stopped by replacing the media with 4% formaldehyde solution. Endogenous peroxide activity is neutralised by incubating with quenching buffer (100 μL, 0.1% sodium azide, 1% H2O2 in PBS with 0.05% Tween-20) for 20 min. The cells are washed with washing buffer (200 μL; PBS containing 0.05% Tween-20) and incubated with blocking solution (200 μL; 5% milk in PBS) for 1 hr, re-washed with washing buffer (200 μL) and then incubated overnight with anti-β-catenin antibody solution (50 μL) in 1% BSA/PBS (BD, Oxford, UK).
After washing with washing buffer (3×200 μL; PBS containing 0.05% Tween-20), cells are incubated with an HRP-conjugated secondary antibody solution (100 μL) in 1% BSA/PBS (Dako, Cambridge, UK) and the resultant signal is determined colourimetrically (OD: 450 nm with a reference wavelength of 655 nm) using TMB substrate (50 μL; R&D Systems, Abingdon, UK). This reaction is stopped by addition of 1N H2SO4 solution (50 μL). Cells are then washed with washing buffer and 2% crystal violet solution (50 μL) is applied for 30 min. After washing with washing buffer (3×200 μL), 1% SDS (100 μL) is added to each well and the plates are shaken lightly for 1 hr prior to measuring the absorbance at 595 nm (Varioskan® Flash, Thermo-Fisher Scientific).
The measured OD450-655 readings are corrected for cell number by dividing the OD450-655 by the OD595 readings. The percentage induction for each well is calculated relative to vehicle, and the ratio of induction normalised in comparison with the induction produced by a standard control comprising of N-(4-(4-(3-(3-tert-butyl-1-p-tolyl-1H-pyrazol-5-yl)ureido)naphthalen-1-yloxy)pyridin-2-yl)-2-methoxyacetamide (1 μg/mL) which is defined as 100%.

Experiment [8] concerns PBMCs. The experiment can be described thus: IL-2 and IFN gamma release in CD3/CD28 stimulated PBMC cells, assay (c). The class given is cell-based. Conditions: Homo sapiens. The method, then:
PBMCs from healthy subjects are separated from whole blood using a density gradient (Lymphoprep, Axis-Shield Healthcare). Cells are added to a 96 well plate pre-coated with a mixture of CD3/CD28 monoclonal antibodies (0.3 μg/mL eBioscience and 3 μg/mL BD Pharmingen respectively). Compound at the desired concentration is then added to the wells and the plate left for 3 days under normal tissue culture conditions. Supernatants are harvested and IL-2 and IFN gamma release determined by Sandwich ELISA (Duo-set, R&D System). The IC50 is determined from the dose response curve.

Setting [9] is: 1 μg/mL test compound, normalised to reference N-(4-(4-(3-(3-tert-butyl-1-p-tolyl-1H-pyrazol-5-yl)ureido)naphthalen-1-yloxy)pyridin-2-yl)-2-methoxyacetamide.
The mark [10] stands for this setting: 5 μg/mL test compound, normalised to the same reference compound.
Where [11] appears, read: 10 μg/mL test compound, normalised to the same reference compound.
Where [12] appears, read: IFNγ, read-out: IC50 Values for Inhibition of Cytokine Release, PBMCs IFNγ.

Sequence of GSK3α (P49840 whole entry, canonical isoform): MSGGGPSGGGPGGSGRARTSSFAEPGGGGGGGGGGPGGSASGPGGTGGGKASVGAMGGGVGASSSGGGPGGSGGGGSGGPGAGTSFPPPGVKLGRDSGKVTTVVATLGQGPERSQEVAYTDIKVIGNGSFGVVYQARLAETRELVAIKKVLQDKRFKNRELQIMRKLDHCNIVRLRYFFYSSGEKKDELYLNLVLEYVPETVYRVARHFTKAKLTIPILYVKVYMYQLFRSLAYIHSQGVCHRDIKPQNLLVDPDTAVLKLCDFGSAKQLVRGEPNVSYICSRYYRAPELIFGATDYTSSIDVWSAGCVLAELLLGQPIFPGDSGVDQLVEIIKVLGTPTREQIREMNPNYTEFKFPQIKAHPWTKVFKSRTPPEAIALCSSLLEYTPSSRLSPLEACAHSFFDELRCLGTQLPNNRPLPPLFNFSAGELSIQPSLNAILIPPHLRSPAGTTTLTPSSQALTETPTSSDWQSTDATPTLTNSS
Sequence of p38 MAPKα (Q16539 whole entry): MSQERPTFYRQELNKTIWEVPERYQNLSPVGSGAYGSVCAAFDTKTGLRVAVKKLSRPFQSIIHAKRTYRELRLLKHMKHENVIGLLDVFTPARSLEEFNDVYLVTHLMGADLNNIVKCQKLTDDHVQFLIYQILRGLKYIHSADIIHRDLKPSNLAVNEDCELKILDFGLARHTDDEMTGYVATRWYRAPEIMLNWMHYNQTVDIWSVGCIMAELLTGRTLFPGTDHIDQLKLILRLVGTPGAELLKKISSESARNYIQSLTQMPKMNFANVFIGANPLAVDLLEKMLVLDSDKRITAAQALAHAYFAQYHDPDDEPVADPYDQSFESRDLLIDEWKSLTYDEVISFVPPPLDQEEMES

For orientation: IC50 means the midpoint of a concentration-inhibition curve. For the molecule `C#Cc1cc(Nc2nccc(Oc3ccc(NC(=O)Nc4cc(C(C)C)nn4C)c4ccccc34)n2)cc(C(=O)NCCN2CCOCC2)c1` [Example 10, 3-Ethynyl-5-((4-((4-(3-(3-isopropyl-1-methyl-1H-pyrazol-5-yl)ureido)naphthalen-1-yl)oxy)pyrimidin-2-yl)amino)-N-(2-morpholinoethyl)benzamide], the IC50 in experiment [1] was found to be 8 nM; in experiment [2], 9 nM; in experiment [3] it was 14100 nM; in experiment [4], 15.6 nM; in experiment [5], 819 nM; in experiment [6], 270 nM.

For `C#Cc1cc(Nc2nccc(Oc3ccc(NC(=O)Nc4cc(C(C)C)nn4C)c4ccccc34)n2)cc(C(=O)NCCOCCOCCOC)c1` [Example 11, 3-Ethynyl-5-((4-((4-(3-(3-isopropyl-1-methyl-1H-pyrazol-5-yl)ureido)naphthalen-1-yl)oxy)pyrimidin-2-yl)amino)-N-(2-(2-(2-methoxyethoxy)ethoxy)ethyl)benzamide], the IC50 in experiment [1] is 9 nM; in experiment [2], 13 nM; in experiment [3], 9520 nM; in experiment [4], 26.1 nM; in experiment [5] it was more than 1000 nM; in experiment [6], more than 1000 nM.

`C#Cc1cc(Nc2cc(Oc3ccc(NC(=O)Nc4cc(C(C)(C)C)nn4C)c4ccccc34)ccn2)cc(C(=O)NCCOCCOCCOC)c1` [Example 9, 3-((4-((4-(3-(3-(tert-Butyl)-1-methyl-1H-pyrazol-5-yl)ureido)naphthalen-1-yl)oxy)pyridin-2-yl)amino)-5-ethynyl-N-(2-(2-(2-methoxyethoxy)ethoxy)ethyl)benzamide]: the IC50 in experiment [1] is 53 nM; in experiment [2], 66 nM; in experiment [3], 12400 nM; in experiment [4], 3.8 nM; in experiment [5] it was more than 1000 nM; in experiment [8] (setting [12]) it was 33.7 nM. In addition, in experiment [6], the IC50 is 18 nM. The “% β-catenin induction” value is given as −2.5% in experiment [7] (setting [9]), −1% in experiment [7] (setting [10]) and 4.5% in experiment [7] (setting [11]).

Take `COCCOCCOCCOc1cc(Nc2cc(Oc3ccc(NC(=O)Nc4cc(C(C)(C)C)nn4C)c4ccccc34)ccn2)cc(OC)c1` [Example 5, 1-(3-(tert-Butyl)-1-methyl-1H-pyrazol-5-yl)-3-(4-((2-((3-methoxy-5-(2-(2-(2-methoxy-ethoxy)ethoxy)ethoxy)phenyl)amino)pyridin-4-yl)oxy)naphthalen-1-yl)]: the half-maximal inhibitory concentration (IC50) in experiment [1] is 10 nM; in experiment [2] it was 160 nM; in experiment [3] it was 7490 nM; in experiment [4], 2.8 nM; in experiment [5], more than 1000 nM; in experiment [8] (setting [12]), 13.3 nM. In addition, the IC50 in experiment [8] (IL-2, read-out: IC50 Values for Inhibition of Cytokine Release, PBMCs IL-2) stood at 33.8 nM. In addition, the “% β-catenin induction” value in experiment [7] (setting [9]) was −5.5%; in experiment [7] (setting [10]) it was −7%; in experiment [7] (setting [11]), −2%.

With `C#Cc1cc(Nc2nccc(Oc3ccc(NC(=O)Nc4cc(C(C)(C)C)nn4C)c4ccccc34)n2)cc(C(=O)NCCOCCOCCOC)c1` [Example 7, 3-((4-((4-(3-(3-(tert-Butyl)-1-methyl-1H-pyrazol-5-yl)ureido)naphthalen-1-yl)oxy)pyrimidin-2-yl)amino)-5-ethynyl-N-(2-(2-(2-methoxyethoxy)ethoxy)ethyl)benzamide], the IC50 is 5 nM in experiment [1]; 11 nM in experiment [2]; 1850 nM in experiment [3]; 2.2 nM in experiment [4]; more than 1000 nM in experiment [5]; 11.8 nM in experiment [8] (setting [12]). Moreover, the “% β-catenin induction” value is listed as 1.5% in experiment [7] (setting [9]), 6% in experiment [7] (setting [10]) and 9.5% in experiment [7] (setting [11]).

The record behind these values is patent publication US9771353B2, “Kinase inhibitors based upon N-alkyl pyrazoles” (RESPIVERT LIMITED, priority 2013, dated 2017).
